Measured values taken from patent US5166379A, “Synthesis of compounds with biological activity, and methods of use” (Harbor Branch Oceanographic Institution, Inc., priority 1990, dated 1992).
In brackets after ≈: the same amount, converted by molar mass. Where two headings read alike, the source gives them in different places.

Columns and labels:
[1] = system: graft vs host reaction in CB6F1 mice grafted with BALB/c splenocytes; experiment: Graft vs. Host (GVHR) in vivo activity; settings: for % Suppression / Stim. Index (spleen index): i.p.
Procedure: III. Graft vs. Host (GVHR) In Vivo Activity
1. Donor mice (BALB/c) were sacrificed, spleens removed, and spleen cell suspensions prepared in tissue culture medium.
2. The above splenocyte suspension was adjusted to 10.0×10^7 cells/ml.
3. Mice were treated with varying dosages of the test compound. […] Treatment consisted of intraperitoneal injections, daily for 7 days. Dosages were calculated on a mg per kg body weight basis.
4. On day 1 of the first treatment regimen, recipient mice (CB6) were injected intraperitoneally with 0.50 ml (50.0×10^6) of the donor (BALB/c) splenocyte suspension.
5. Controls consisted of the following:
POS--mice receiving BALB/c splenocytes (Positive Control)
SYN--mice receiving CB6 splenocytes (Syngeneic Control)
CYP--mice receiving Cyclophosphamide (100 mg/kg) and BALB/c splenocytes
6. At the end of five days, recipient mice were sacrificed, weighed, and spleens removed and weighed.
7. A spleen index of 1.0 was assigned to the mean spleen weights (adjusted to body weight) of the SYN controls. The spleen index of treated mice was determined by comparing the spleen weights of those mice with that of the […]. […] As a general rule, a spleen index of less than the positive control is indicative of an immunosuppressive (ID) compound.
^a CB6F1 mice (5 mice per group) were grafted with 5 ×
10^7 BALB/c spelnocytes, i.p. on Day 0. Groups were injected, ii.p.,
with drug (or vehicle) on Days 1-6. Positive designates grafted mice
receiving vehicle alone.
^b Number of surviving mice at end of experiment.
(Stimulation Index of Syngeneic group (CB6F1 ->CB6F1) = 100

[2] = system: P388 cells; experiment: Antiproliferative effects against P388 cells (antitumor, MTT); format: cell-based; settings: Mus musculus, P388, 48 hour exposure
Procedure: IV. Antitumor Methodology
To assess the antiproliferative effects against P388 cells, 200 μl cultures (96-well tissue culture plates, Nunc, Denmark) were established at 1×10^5 cells/ml in drug-free medium or medium containing the pure compounds/crude extracts at a final dilution or 1:500 and at various concentrations. Solvent for all dilutions was methanol, which was removed from plates under vacuum. All experimental cultures were initiated in media containing Gentamicin sulfate (50 μg/ml; Schering Corporation, Kenilworth, NJ).
To quantitate the effects of pure compounds/crude extracts on cell proliferation, 75 μl of warm growth medium containing 5 mg/ml MTT was added to each well, cultures were returned to the incubator, and were left undisturbed for 90 minutes. To spectrophotometrically quantitate formation of reduced formazan, plates were centrifuged (900×g, 5 minutes), culture fluids removed by aspiration, and 200 μl of acidified isopropanol (2 ml concentrated HCl/liter isopropanol) added per well. The absorbance of the resulting solutions were measured at 570 nm with a plate reader (MR700 Microplate Reader, Dynatech Laboratories, Chantilly, VA).

[3] = system: murine splenocyte suspensions (BALB/c and C57BL/6J mice); experiment: Mixed Lymphocyte Reaction (MLR); format: cell-based; settings: Mus musculus, Splenocyte, read-out: % MLR (percentage of positive control)
Procedure: I. Mixed Lymphocyte Reaction
1. Murine splenocyte suspensions were prepared separately from BALB/c and C57BL/6J mice. […] The cell concentrations were adjusted to 2.5×10^6 cells/ml. Aliquots of each cell population were removed to separate tubes, and the remaining two cell suspensions combined to one tube.
(§1) 2. Serial, log10 dilutions of the pure compound were made in absolute ethanol, and 10 μl of each dilution was added to wells of microtiter test plates, and allowed to dry.
3. A volume of 0.2 ml of the combined splenocyte suspensions was added to triplicate test wells. Positive control wells received combined splenocyte suspensions in the absence of the test compounds. Negative control wells consisted of separate (not mixed) splenocyte suspensions cultured in the absence of the test compounds.
4. Plates were incubated in 5% CO2 at 37° C. for 86 hours.
5. A volume of 0.05 ml of ^3 H-thymidine (20 μCi/ml) was added to each well, and the plates were incubated in 5% CO2 at 37° C. for an additional 5 hours.
6. The contents of each well of the microtiter plates were harvested onto glass fiber filter strips, and the resulting filter discs placed in scintillation vials to which 2.0 ml of scintillation fluid was added.
7. The amount of incorporated ^3 H-thymidine was determined by counting the vials in a liquid scintillation counter.
8. Triplicate counts were averaged, and the data reported as a percentage of the positive control.

[4] = Lymphocyte Viability Assay (LCV); format: cell-based, murine; settings: mouse, splenocytes, read-out: % LCV (percentage of positive control)
Procedure: II. Lymphocyte Viability Assay
1. Compounds were similarly tested in parallel with the MLR to determine their toxic effects on lymphoid cells using the lymphocyte viability assay (LCV).
as §1
3. Murine splenocyte suspensions were prepared from BALB/c mice. […] The cell concentrations were adjusted to 2.5×10^6 cells/ml.
4. A volume of 0.2 ml of the splenocyte suspension was added to replicate test wells. Positive control wells received splenocyte suspensions in the absence of the test compounds.
5. Plates were incubated at 37° C. for 86 hours. At the end of the incubation period, a volume of 75 μl of a 2.0 mg/ml solution of MTT was added to each well, and the plates were returned to the incubator for an additional 5 hours.
6. The supernatants from each microwell were then removed, and a volume of 200 μl of isopropanol was added and the contents mixed.
7. Values were obtained by comparing the optical densities (determined at 570 and 650 nm) of wells containing the test compounds with those of wells containing cells and medium only (positive control). The results are expressed as a percentage of the positive control.
8. Replicate counts were averaged, and the data reported as a percentage of the positive control. An LCV value of less than 60% of the positive control is an indication of cytotoxicity of the test compounds for lymphoid cells.

With `C#CC(O)/C=C/CCCCCCCCCCCCCCC` (stereo not shown) [CH3 (CH2)14 CH=CH--CHOH--C≡CH] the “% Suppression” value ([1]; 25.0 mg/kg) was 45%, the “Stim. Index (spleen index)” value ([1]; 25.0 mg/kg) was 1.63 ± .25 and the “% Suppression” value ([1]; 50.0 mg/kg) was 25%. For the same compound, the “Stim. Index (spleen index)” value ([1]; 50.0 mg/kg) was 1.86 ± .18, the “% Suppression” value ([1]; 100 mg/kg) was 0% and the “Stim. Index (spleen index)” value ([1]; 100 mg/kg) was 2.35 ± .15. For the same compound, the “% Suppression” value ([1]; 150.0 mg/kg) was 81%, the “Stim. Index (spleen index)” value ([1]; 150.0 mg/kg) was 1.22 ± .03 and the “suppression of the GVHR (splenomegaly response), in words” value ([1]; mouse, in vivo) was “could mediate the suppression of the GVHR”. For the same compound, the IC50 [2] was 9.4 µg/mL (≈ 32.1 µM), the activity at 0.05 µg/mL ([3]; 0.05 μg/ml) was 0% and the activity at 0.2 µg/mL ([3]; 0.2 μg/ml) was 0%. The activity at 0.8 µg/mL ([3]; 0.8 μg/ml) was 0%, the activity at 3.1 µg/mL ([3]; 3.1 μg/ml) was 0% and the activity at 12.5 µg/mL ([3]; 12.5 μg/ml) was 0%. The activity at 50 µg/mL ([3]; 50 μg/ml) was 0%, the viability ([4]; 0.05 μg/ml) was 63% and the viability ([4]; 0.2 μg/ml) was 42%. The viability ([4]; 0.8 μg/ml) was 20%, the viability ([4]; 3.1 μg/ml) was 19% and the viability ([4]; 12.5 μg/ml) was 19%. It also gave a viability ([4]; 50 μg/ml) of 11%.
